Data on ten compounds can be found in patent publication EP0103381B1, “Substituted anthra(1,9-cd)pyrazol-6(2H)-ones” (WARNER-LAMBERT COMPANY, priority 1982, dated 1984).

Assay [1] concerns lymphocytic leukemia P388. Description: in vivo lymphocytic leukemia P388 test. Also on record: species or system mice. The following applies: Mus musculus, P388, ip, 720 h, two single doses four days apart, read-out: T/C × 100 (Percent); for response vs control in vivo at 6.25 mg/kg: P388, Dose 6.25 mg/kg intraperitoneally; for response vs control in vivo at 12.5 mg/kg: P388, Dose 12.5 mg/kg intraperitoneally; for response vs control in vivo at 25 mg/kg: P388, Dose 25 mg/kg intraperitoneally; for response vs control in vivo at 50 mg/kg: P388, Dose 50 mg/kg intraperitoneally; for response vs control in vivo at 100 mg/kg: P388, Dose 100 mg/kg intraperitoneally; for response vs control in vivo at 1.56 mg/kg: P388, Dose 1.56 mg/kg intraperitoneally. The method in brief:
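Efficacy was judged from the treated/control survival-time ratio over 30 days (T/C×100 >125% as criterion). Mice (CD2F, 6–7/group) received i.p. P388 ascites cells, then compound i.p. at varied doses twice, four days apart.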

Assay [2] has as its system Aerobacter aerogenes. Description: agar plate paper-disc inhibition zone screening. It is filed as cell-based. The following applies: Klebsiella aerogenes, read-out: Inhibition Zone Diameter mm (Dose mg/ml) A. Aerogenes; for zone of inhibition at 500 µg/mL: Dose 0.5 mg/ml; for zone of inhibition at 3000 µg/mL: Dose 3.0 mg/ml. The method in brief:
(§1)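 Overnight bacterial cultures were suspended in 0.85% saline to 20-35% light transmittancy and mixed into molten assay agar poured in trays. Compounds at 3,000, 1,000, 500, 100 and 10 mcg/ml (solvent <10%) were applied to 12.7 mm paper discs; after 18-20 h at 37°C, inhibition zone diameters were measured in mm.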

Assay [3] deals with Bacillus subtilis. Description: agar plate paper-disc inhibition zone screening. The class given is cell-based. The following applies: read-out: Inhibition Zone Diameter mm (Dose mg/ml) B. Subtilis; for zone of inhibition at 1000 µg/mL: Dose 1.0 mg/ml; for zone of inhibition at 3000 µg/mL: Dose 3.0 mg/ml. The method, boiled down:
as §1

The test system of assay [4] is Streptococcus faecalis. Description: agar plate paper-disc inhibition zone screening. The following applies: Enterococcus faecalis; Dose 3.0 mg/ml; read-out: Inhibition Zone Diameter mm (Dose mg/ml) S. Faecalis. The class given is cell-based. The method, boiled down:
as §1

Assay [5] relates to Escherichia coli. The assay is described as follows: agar plate paper-disc inhibition zone screening. The class given is cell-based. The following applies: read-out: Inhibition Zone Diameter mm (Dose mg/ml) E. Coli; for zone of inhibition at 500 µg/mL: Dose 0.5 mg/ml; for zone of inhibition at 3000 µg/mL: Dose 3.0 mg/ml. The method in brief: as §1
Assay [6] concerns Penicillium avellaneum. The assay is described as follows: agar plate paper-disc inhibition zone screening. The class given is cell-based. The following applies: Hamigera avellanea; Dose 3.0 mg/ml; read-out: Inhibition Zone Diameter mm (Dose mg/ml) P. Avellaneum. The method in brief: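 Mycelia and spores from a six-day 28°C agar culture, suspended in saline with 0.05% Tween 80 at 20% transmittancy, were seeded into molten agar trays. Compounds at 3,000, 1,000, 500, 100 and 10 mcg/ml (solvent <10%) were applied on 12.7 mm paper discs. After at least 20-24 h incubation, inhibition zone diameter was measured in mm.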

In the case of `CN(C)CCn1nc2c3c(c(NCCN)ccc31)C(=O)c1c(O)ccc(O)c1-2` [Example 33, 5-[(2-Aminoethyl)amino]-2-[2-(dimethylamino)ethyl]-7,10-dihydroxyanthra[1,9-cd]pyrazol-6(2H)-one], the response vs control in vivo at 3.12 mg/kg in assay [1] (P388, Dose 3.12 mg/kg intraperitoneally) was 182%. In assay [1], the response vs control in vivo at 6.25 mg/kg was 182%. Moreover, the zone of inhibition at 500 µg/mL in assay [2] and in assay [5] was 14 mm throughout. Besides, the zone of inhibition at 1000 µg/mL in assay [3] stood at 14 mm. Further, the zone of inhibition at 3000 µg/mL came out at 16 mm in assay [4] and 0 mm in assay [6].
On to `CN(C)CCn1nc2c3c(c(NCCCN)ccc31)C(=O)c1c(O)ccc(O)c1-2` [Example 34, 5-[(3-Aminopropyl)amino]-2-[2-(dimethylamino)ethyl]-7,10-dihydroxyanthra[1,9-cd]pyrazol-6(2H)-one], for which, in assay [1], the response vs control in vivo at 6.25 mg/kg amounted to 196%. Further, the response vs control in vivo at 12.5 mg/kg in assay [1] turned out to be 205%. Also, the zone of inhibition at 3000 µg/mL is 14 mm in assay [2]; 0 mm in assay [3]; 0 mm in assay [4]; 15 mm in assay [5]; 0 mm in assay [6].
Regarding `CCN(CC)CCNc1ccc2c3c(nn2CCO)-c2c(O)ccc(O)c2C(=O)c13` [Example 35, 5-[[2-(Diethylamino)ethyl]amino]-7,10-dihydroxy-2-(2-hydroxyethyl)anthra[1,9-cd]pyrazol-6(2H)-one], the response vs control in vivo at 25 mg/kg in assay [1] was 128%. Besides, the response vs control in vivo at 37.5 mg/kg in assay [1] (P388, Dose 37.5 mg/kg intraperitoneally) was 135%. Moreover, the response vs control in vivo at 75 mg/kg in assay [1] (P388, Dose 75 mg/kg intraperitoneally) was found to be 135%. Besides, the response vs control in vivo at 150 mg/kg in assay [1] (P388, Dose 150 mg/kg intraperitoneally) stood at 155%. The response vs control in vivo at 200 mg/kg in assay [1] (P388, Dose 200 mg/kg intraperitoneally) amounted to 167%. In assay [1] (P388, Dose 300 mg/kg intraperitoneally), the response vs control in vivo at 300 mg/kg stood at 177%. Further, in assay [1] (P388, Dose 400 mg/kg intraperitoneally), the response vs control in vivo at 400 mg/kg was found to be 190%. Further, the zone of inhibition at 3000 µg/mL in assay [2] is 0 mm; in assay [4], 14 mm; in assay [5] it was 0 mm; in assay [6] it was 0 mm. Moreover, the zone of inhibition at 500 µg/mL in assay [3] (Dose 0.5 mg/ml) stood at 14 mm.
With `O=C1c2c(O)ccc(O)c2-c2nn(CCO)c3ccc(NCCNCCO)c1c23` [Example 36, 5-[[2-[(2-Hydroxyethyl)amino]ethyl]amino]-7,10-dihydroxy-2-(2-hydroxyethyl)anthra[1,9-cd]pyrazol-6(2H)- . one], the response vs control in vivo at 6.25 mg/kg in assay [1] was 143%. Moreover, the response vs control in vivo at 12.5 mg/kg in assay [1] amounted to 158%. In addition, the response vs control in vivo at 50 mg/kg in assay [1] was 163%. Besides, in assay [1], the response vs control in vivo at 100 mg/kg amounted to 172%. Further, the zone of inhibition at 3000 µg/mL in assay [2] was 0 mm; in assay [3], 17 mm; in assay [4], 0 mm; in assay [5], 0 mm; in assay [6] it was 0 mm.
As for `NCCNc1ccc2c3c(nn2CCO)-c2c(O)ccc(O)c2C(=O)c13` [Example 37, 5-[(2-Aminoethyl)amino]-7,10-dihydroxy-2-(2-hydroxyethyl)anthra[1,9-cd]pyrazol-6(2H)-one], in assay [1], the response vs control in vivo at 6.25 mg/kg turned out to be 135%, the response vs control in vivo at 12.5 mg/kg amounted to 145%, the response vs control in vivo at 25 mg/kg worked out at 146% and the response vs control in vivo at 50 mg/kg worked out at 162%. The zone of inhibition at 1000 µg/mL in assay [2] (Dose 1.0 mg/ml) stood at 15 mm. Also, in assay [3], the zone of inhibition at 1000 µg/mL stood at 15 mm. The zone of inhibition at 3000 µg/mL in assay [4] stood at 0 mm. Also, the zone of inhibition at 3000 µg/mL in assay [5] is 0 mm. Besides, the zone of inhibition at 3000 µg/mL in assay [6] turned out to be 0 mm.
As for `CN(C)CCNc1ccc2c3c(nn2CCO)-c2c(O)ccc(O)c2C(=O)c13` [Example 39], in assay [1], the response vs control in vivo at 12.5 mg/kg worked out at 124%, the response vs control in vivo at 25 mg/kg was determined as 153%, the response vs control in vivo at 50 mg/kg was found to be 180% and the response vs control in vivo at 100 mg/kg was found to be 225%. In addition, the zone of inhibition at 500 µg/mL in assay [2] stood at 15 mm. In addition, the zone of inhibition at 3000 µg/mL in assay [3] was found to be 0 mm. Further, the zone of inhibition at 3000 µg/mL in assay [4] came out at 14 mm. The zone of inhibition at 3000 µg/mL in assay [5] was 0 mm. In assay [6], the zone of inhibition at 3000 µg/mL is 0 mm.
As to `CCN(CC)CC(O)Cn1nc2c3c(c(NCCNCCO)ccc31)C(=O)c1c(O)ccc(O)c1-2` (stereo not shown) [Example 43, 2-[3-(Diethylamino)-2-hydroxypropyl]-7,10-dihydroxy-5-[[2-[(2-hydroxyethyl)amino]ethyl]amino]-anthra[1,9-cd]pyrazol-6(2H)-one], the response vs control in vivo at 0.78 mg/kg in assay [1] (P388, Dose 0.78 mg/kg intraperitoneally) was determined as 132%. Besides, the response vs control in vivo at 1.56 mg/kg in assay [1] came to 139%. Further, the zone of inhibition at 500 µg/mL in assay [2] and in assay [5] was 16 mm each time. Also, the zone of inhibition at 3000 µg/mL in assay [3] was 14 mm; in assay [4] it was 15 mm; in assay [6], 0 mm.
As for `CCN(CC)CCNc1ccc2c3c(nn2CC(O)CN(CC)CC)-c2c(O)ccc(O)c2C(=O)c13` (stereo not shown) [Example 44], the response vs control in vivo at 12.5 mg/kg in assay [1] is 128%. Further, in assay [1], the response vs control in vivo at 25 mg/kg stood at 131%. In assay [1], the response vs control in vivo at 50 mg/kg is 131%. The zone of inhibition at 3000 µg/mL in assay [2] turned out to be 14 mm; in assay [3], 15 mm; in assay [4], 14 mm; in assay [6] it was 0 mm. Also, in assay [5], the zone of inhibition at 500 µg/mL worked out at 15 mm.
Consider `CCN(CC)CC(O)Cn1nc2c3c(c(NCCN)ccc31)C(=O)c1c(O)ccc(O)c1-2` (stereo not shown) [Example 45, 5-[(2-Aminoethyl)amino]-2-[3-(diethylamino)-2-hydroxypropyl]-7,10-dihydroxyanthra[1,9-cd]pyrazol-6(2H)-one], for which the response vs control in vivo at 0.39 mg/kg in assay [1] (P388, Dose 0.39 mg/kg intraperitoneally) came out at 135%. The response vs control in vivo at 1.56 mg/kg in assay [1] stood at 157%. Further, the zone of inhibition at 500 µg/mL in assay [2] and in assay [5] was 15 mm in each case. Also, the values for the zone of inhibition at 3000 µg/mL in assay [3], in assay [4] and in assay [6] were 14 mm, 0 mm and 0 mm, respectively.
For the compound `CN(C)CCCn1nc2c3c(c(NCCCN)ccc31)C(=O)c1c(O)ccc(O)c1-2` [Example 47, 5-[(3-Aminopropyl)amino]-2-[3-(dimethylamino)propyl]-7,10-dihydroxyanthra[1,9-cd]pyrazol-6(2H)-one], the response vs control in vivo at 12.5 mg/kg in assay [1] came to 173%. Besides, the response vs control in vivo at 25 mg/kg in assay [1] was 194%. Besides, the zone of inhibition at 3000 µg/mL in assay [2] came to 14 mm; in assay [3], 14 mm; in assay [4], 0 mm; in assay [5], 14 mm; in assay [6] it was 0 mm.
